According to PMC7516017, “Organoids to Study Intestinal Nutrient Transport, Drug Uptake and Metabolism – Update to the Human Model and Expansion of Applications” (Frontiers in Bioengineering and Biotechnology, 2020):

Tests used:
human duodenal organoids = test: Live-cell imaging of intracellular calcium (Fura-2-AM); assay type: cell-based; conditions: Fura-2-AM 7μM, ratio F(λex340nm)/F(λex380nm), 100µM ATP
Description: (§1) 1.9. Imaging of intracellular calcium concentrations
(§2) Concentrations of substances used were: 100µM ATP (Sigma), 50mM glucose, and 50mM fructose. Using a Leica DMI6000 B inverted […]
(§3) analyzed using the Leica Application Suite Advanced Fluorescence software. Imaging of intracellular calcium concentrations was performed in human duodenal organoids.
(§4) Of note, the B27 supplement contains a n/a […]
(§5) incubated for the indicated times. Controls were not pulsed with insulin. 2. Addition of butyrate: murine colonic organoids were grown for 6 days in IC. 100µM carnitine and 1mM butyrate were added and organoids were incubated for the indicated times. Time point zero was sampled immediately after addition of butyrate and carnitine. Control organoids were not exposed to butyrate. 3. Addition of d13- […]
(§6) organoids were incubated for the indicated times. Controls were exposed to carnitine and BSA without […]
(§7) 5min) to remove remaining matrigel.
(§8) Comfort; Eppendorf, Hamburg, Germany). The samples were dried in nitrogen gas and reconstituted […]
(§9) To determine amino acid and
(§10) Analytics, Zwingen, Switzerland) was used. Data analysis was performed using Analyst 1.7® and SCIEX OS 1.4 software (Sciex).

[1] = system: murine large intestinal organoids; test: Acylcarnitine profiles after butyrate (LC-MS/MS); assay type: cell-based, mouse; conditions: 1mM butyrate with 100µM carnitine, measured 0, 5, 10, 30, 60 min
Description: as §1, §2, §3, §4, §5, §6, §7, §8, §9, §10

[2] = system: murine small intestinal organoids; test: Amino acid and acylcarnitine levels after insulin (LC-MS/MS); assay type: cell-based, mouse; conditions: 1 μM insulin, measured after 0, 30, 60, 120 min
Description: For live-cell imaging of intracellular calcium concentrations, organoids were loaded with 7μM Fura-2
AM (Life Technologies) in HEPES-saline buffer as used for imaging of intracellular acidification for
20 min at 37 °C and then washed 5 times with PBS (pH 7.4; 37 °C). Concentrations of substances used were: 100µM ATP (Sigma), 50mM glucose, and 50mM fructose. Using a Leica DMI6000 B inverted
fluorescence microscope (Leica Microsystems) at 20× magnification, images were captured every 5-
10s. The fluorescence ratio F(λex340nm)/ F(λex380nm) was calculated and imaging data were
Quantification of amino acid and acylcarnitine concentrations using targeted LC-MS/MS
Metabolite analyses were performed with samples from three different experiments: 1.
incubated for the indicated times. […] Addition of butyrate: murine colonic organoids were grown for 6 days in IC. 100µM carnitine and 1mM butyrate were added and organoids were incubated for the indicated times. […]
palmitate. Medium from untreated organoids was measured to verify organoids as source of […]
acylcarnitine concentrations, quantitative LC -MS/MS was applied as described previously [6, 7]. […]

## Nc1ncnc2c1ncn2[C@@H]1O[C@H](COP(=O)(O)OP(=O)(O)OP(=O)(O)O)[C@@H](O)[C@H]1O [ATP]
Human duodenal organoids
  intracellular calcium response: increases in intracellular calcium

## CCCC(=O)O [butyrate]
[1]
  acetylcarnitine, butyrylcarnitine and palmitoylcarnitine concentrations: increasing to maximal concentrations 60 min after butyrate addition

## insulin
[2]
  tau-methylhistidine and propionylcarnitine (C3) after insulin stimulation: diminished with lowest levels observed 60 min after insulin stimulation
